Source: US10913714B2, “Pyrrole sulfonyl derivative, preparation method and medical use thereof” (JIANGSU CAREPHAR PHARMACEUTICAL CO., LTD, priority 2015, dated 2021)
Structures can show the parent of a compound that is named as a salt.

Tests used:
H^+/K^+-ATPase = molecular target: T1, H^+/K^+-ATPase (Oryctolagus cuniculus, UniProt P27112); assay: Inhibition of H+/K+-ATPase enzymatic activity (rabbit gastric mucosal microsomes, malachite green); format: biochemical; conditions: pH 6.5, 37° C. 30 min, read-out: The median inhibitory concentration (IC50) of the compound to the activity of H^+/K^+-ATPase
T1 construct: collecting the middle layer (H^+/K^+-ATPase enriched gastric membranes) into a clean centrifugal tube; from tissue; host or cells: rabbit stomach (gastric mucosal microsomes, sucrose/Ficoll gradient centrifugation)
Source text: Biological Evaluation on H^+/K^+-ATPase
The following screening assays in vitro are used to evaluate the inhibiting effect of the compound of the Invention on the enzymatic activity of H^+/K^+-ATPase. Experimental materials and instruments are as follows:
1) Rabbit gastric mucosal microsomes (enriched H^+/K^+-ATPase; extracted by the Applicant)
2) Buffer solution: 50 mmol/L HEPEs-Tris, pH=6.5, 5 mmol/L magnesium chloride, 10 μmol/L valinomycin;
3) Buffer solution: 50 mmol/L HEPEs-Tris, pH=6.5, 5 mmol/L magnesium chloride, 10 μmol/L valinomycin, 5 mmol/L potassium chloride;
4) ATP: diluting ATP to 5 mM with buffer solution 1;
5) Malachite green solution: dissolving 0.12% of malachite green in 2.5 mol/L of sulfuric acid; mixing 7.5% (V/V) of ammonium molybdate and 11% of Tween 20(V/V) in a proportion of 100:25:2;
6) The method for extracting rabbit gastric mucosal microsomes (enriched H^+/K^+-ATPase) is sucrose gradient centrifugation, i.e., washing the rabbit stomach with tap water and 3M NaCl solution respectively and removing the surface moisture with filter paper; adding the pre-cooled buffer solution (4 ml/g tissue) for homogenation in a tissue homogenizer for 2-5 min; removing the large tissue particles in a way of centrifugation (600 g, 10 mm) if any after homogenation; transferring the supernatant to a clean centrifugal tube for centrifugation for 30 min at 2000 g; then transferring the supernatant to a clean centrifugal tube for further centrifugation for 90 min at 100000 g; collecting the sediment; suspending the sediment in the homogenate and blowing it to be uniform; measuring the protein concentration with Bradford method; adjusting the concentration to 10 mg/ml; adding 7.5% Ficoll demixing fluid in an equal proportion for centrifugation for 60 min at 100000 g; collecting the middle layer (H^+/K^+-ATPase enriched gastric membranes) into a clean centrifugal tube; diluting it with 4-5 times of homogenate for further centrifugation for 90 min at 100000 g; collecting the sediment; suspending the sediment in the homogenate for homogenation with a glass homogenizer; measuring the protein concentration with Bradford method and adjusting the concentration to 22.5 mg/ml; freezing it under −80° C. for standby. Experimental Process:
Adding 5 μL of gastric mucosal microsomes (H^+/K^+-ATPase) in 45 µL of buffer solution 2; adding 5 μL of the compound solution; adding 5 μL 5 mM of ATP to start the reaction for pre-reaction at 37° C. for 30 min; adding 15 μL of malachite green solution to terminate the reaction; balancing at ambient temperature for 20 min; reading the value of absorbed light at 620 nm.
Meanwhile, conducting another reaction with the same volume without potassium chloride for background, which will be subtracted when calculating the enzymatic activity.
The value of Compound IC50 is calculated through the inhibition ratios at different concentrations.

hERG potassium channel = molecular target: T2, hERG potassium channel (Homo sapiens, UniProt Q12809); assay: Whole cell patch clamp, inhibition of hERG tail current; format: cell-based; conditions: for IC50: human, hERG cells (host cell line not named), pH 7.4, whole cell patch clamp, logistic fit; for Inhibition ratio of max. test concentration (hERG current): max. test concentration 100 μM
T2 construct: expressed in transfected cells
Protocol: Test Case 2: Studies on the Effect of Compounds EXP 1, TAK-438 and EXP 12 on hERG Potassium Channel Testing System 1) Cell culture: the hERG cell is cultured in a routine way, which is subcultured in a DMEM containing 10% of fetal calf serum and 250 μg/ml of G418. 2) Fluid preparation: the composition of the extracellular fluid used in the experiment of whole cell patch clamp comprises (mM): NaCl 145, MgCl21, KCl 4, Glucose 10, HEPES 10 and CaCl22; adjusting the pH value of NaOH to 7.4 and adjusting the value of osmotic pressure to 300 mOsm with sucrose. The composition of the intracellular fluid comprises (mM):KCl 140; MgCl 21; EGTA 5; HEPES 10 and Na2ATP 4; adjusting the pH value of KOH to 7.2 and adjusting the value of osmotic pressure to 290 mOsm with sucrose.
Main composition of the extracellular and intracellular fluid
Test Procedure 1) Electrophysiological recording: taking out one culture dish for each test; cleaning it with the extracellular fluid twice and placing it on the inverted microscope stage. The experiment of whole cell patch clamp is conducted at ambient temperature; the resistance at the microelectrode tip of the used borosilicate glass is 3-5 MQ. 2) Voltage stimulus plan and current record: clamping down the membrane potential to −80 mV under the whole-cell recording mode; giving +50 mV of depolarized voltage stimulus to the cell every 30 s and lasting for 2 s, then repolarizing it to −50 mV and lasting for 3 s, thus, the tail current of hERG can be extracted. Giving 50 ms, −50 mV repolarized voltage to the cell before depolarized voltage stimulus; the current recorded at such voltage is as the base line for calculating the tail current of hERG. Only the cells meet the recording standard can be used in the test of the compounds to be tested. The hERG tail current should be recorded stably at last for 3 min in the extracellular fluid before the compound is added. After perfusion of drugs, it can be regarded that the drug effect reaches a steady state if the change of the amplitude of hERG tail current is less than 5%. If the current fails to reach a steady state in 6 min, the test should also be terminated. 3) Testing standard: the membrane resistance in the experiment should be more than 1,000 MQ. The initial current should be more than 300 pA. The series resistance should be less than 12 MQ after the whole-cell recording mode is constructed. The leakage current is less than 10% of the ionic channel current (taking −80 pA as the peak value). Data Analysis
Using Clampex 10.2 to record the original data and saving the data in the format of *abf. Using pCLAMP 10.1 to conduct data collection and analysis. Selecting 4-5 sweeps when the current is in a steady state before the compound is added; calculating the average peak value to serve as the contrasted current amplitude. Selecting 4-5 sweeps when the current is in a steady state after the compound is added; calculating the average peak value to serve as the residual amplitude of the inhibited current. The inhibition ratio of the compound to be tested to hERG current is calculated as per the equation as: % inhibition ratio={1−(current residual amplitude)/(contrasted current amplitude)}*100
After the inhibition ratio (average value±standard deviation) of the compound to be tested to the hERG current of different concentrations is obtained through the above computing method, the data with logistic equation should be fitted to obtain the value of IC50.

[1] = Acute toxicity test, single gavage in rats; format: in vivo; conditions: SD rat, gavage once, observed 14 days
Protocol: Test content: single administration dosage: 2000 mg/kg, 600 mg/kg; administration by gavage: once; volume: 10 ml/kg; observing for 14 days for the rat's behavior and weight each day.
Experimental grouping: black group, Group of 600 mg/kg, Group of 2000 mg/kg; 4 rats each group; half male and half female.

T2 sequence (Q12809 whole entry): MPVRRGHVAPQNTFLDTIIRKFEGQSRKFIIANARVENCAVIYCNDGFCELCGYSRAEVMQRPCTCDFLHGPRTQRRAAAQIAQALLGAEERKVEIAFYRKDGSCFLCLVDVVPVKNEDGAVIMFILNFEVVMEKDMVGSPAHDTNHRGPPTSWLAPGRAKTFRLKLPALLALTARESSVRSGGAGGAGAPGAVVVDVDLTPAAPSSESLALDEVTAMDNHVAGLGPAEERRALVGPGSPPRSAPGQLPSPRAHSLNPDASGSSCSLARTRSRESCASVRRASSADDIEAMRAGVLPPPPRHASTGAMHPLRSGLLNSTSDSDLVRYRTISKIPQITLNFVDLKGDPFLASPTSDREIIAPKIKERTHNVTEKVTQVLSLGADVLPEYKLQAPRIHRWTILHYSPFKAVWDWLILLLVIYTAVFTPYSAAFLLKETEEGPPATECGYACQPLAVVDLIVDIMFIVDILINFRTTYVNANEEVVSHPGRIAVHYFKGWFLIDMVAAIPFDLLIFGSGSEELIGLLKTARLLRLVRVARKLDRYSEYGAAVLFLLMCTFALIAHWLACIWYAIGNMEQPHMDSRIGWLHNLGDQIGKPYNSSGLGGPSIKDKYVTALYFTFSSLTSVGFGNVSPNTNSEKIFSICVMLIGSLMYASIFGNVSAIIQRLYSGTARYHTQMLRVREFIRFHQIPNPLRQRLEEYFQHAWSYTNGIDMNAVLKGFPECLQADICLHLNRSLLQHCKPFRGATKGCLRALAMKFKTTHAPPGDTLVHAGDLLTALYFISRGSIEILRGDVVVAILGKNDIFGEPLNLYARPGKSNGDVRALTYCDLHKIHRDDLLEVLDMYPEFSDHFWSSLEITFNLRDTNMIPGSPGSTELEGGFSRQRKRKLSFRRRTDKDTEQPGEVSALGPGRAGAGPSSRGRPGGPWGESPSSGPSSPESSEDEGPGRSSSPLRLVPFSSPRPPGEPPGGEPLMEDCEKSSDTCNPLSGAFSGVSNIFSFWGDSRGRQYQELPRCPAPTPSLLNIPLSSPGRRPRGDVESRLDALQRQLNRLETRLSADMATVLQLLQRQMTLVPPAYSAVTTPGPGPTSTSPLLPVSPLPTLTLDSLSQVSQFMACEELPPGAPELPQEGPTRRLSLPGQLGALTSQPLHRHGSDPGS
T1 sequence (P27112 whole entry): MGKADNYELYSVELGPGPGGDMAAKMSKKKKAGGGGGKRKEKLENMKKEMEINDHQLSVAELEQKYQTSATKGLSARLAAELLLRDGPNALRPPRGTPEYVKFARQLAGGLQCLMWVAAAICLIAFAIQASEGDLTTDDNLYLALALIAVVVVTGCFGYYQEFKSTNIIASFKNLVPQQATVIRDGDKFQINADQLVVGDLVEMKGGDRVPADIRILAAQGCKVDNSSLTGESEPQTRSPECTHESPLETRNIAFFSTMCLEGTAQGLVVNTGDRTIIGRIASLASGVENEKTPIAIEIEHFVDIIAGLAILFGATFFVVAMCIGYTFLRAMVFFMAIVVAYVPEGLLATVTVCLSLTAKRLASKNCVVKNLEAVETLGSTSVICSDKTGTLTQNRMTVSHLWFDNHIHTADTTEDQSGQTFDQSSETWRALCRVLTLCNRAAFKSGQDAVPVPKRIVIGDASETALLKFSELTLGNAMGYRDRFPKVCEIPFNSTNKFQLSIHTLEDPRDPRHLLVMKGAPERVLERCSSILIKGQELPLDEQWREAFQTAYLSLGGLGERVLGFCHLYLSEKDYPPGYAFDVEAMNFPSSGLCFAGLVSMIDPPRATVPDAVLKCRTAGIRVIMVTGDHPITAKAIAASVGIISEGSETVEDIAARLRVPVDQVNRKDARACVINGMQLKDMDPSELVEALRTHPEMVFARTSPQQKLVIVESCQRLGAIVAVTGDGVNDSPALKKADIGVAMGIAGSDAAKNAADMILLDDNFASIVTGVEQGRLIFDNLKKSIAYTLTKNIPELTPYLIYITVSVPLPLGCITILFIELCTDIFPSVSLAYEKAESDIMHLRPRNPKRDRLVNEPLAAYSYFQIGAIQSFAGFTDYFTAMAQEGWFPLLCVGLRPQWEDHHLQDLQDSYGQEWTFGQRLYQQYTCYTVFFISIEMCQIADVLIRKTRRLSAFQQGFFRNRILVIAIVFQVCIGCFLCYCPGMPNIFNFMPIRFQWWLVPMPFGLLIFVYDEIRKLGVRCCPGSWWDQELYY
T1 sequence (P18597 whole entry partner): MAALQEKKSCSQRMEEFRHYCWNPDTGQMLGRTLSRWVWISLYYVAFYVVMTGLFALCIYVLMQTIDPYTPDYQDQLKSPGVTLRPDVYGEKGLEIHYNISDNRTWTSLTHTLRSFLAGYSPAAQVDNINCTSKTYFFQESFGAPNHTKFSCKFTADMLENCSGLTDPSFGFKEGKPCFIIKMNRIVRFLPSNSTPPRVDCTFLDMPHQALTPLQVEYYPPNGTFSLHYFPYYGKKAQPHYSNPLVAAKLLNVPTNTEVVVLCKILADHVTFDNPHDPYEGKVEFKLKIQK

CNCc1cc(-c2ccccc2F)n(S(=O)(=O)c2cccc(OCCCOC)c2)c1 [EXP 1, 1-(5-(2-fluorobenzene)-1-((3-(3-methoxypropoxy)phenyl)sulfonyl)-1H-pyrrole-3-yl)-N-methyl methylamine]
IC50 (H^+/K^+-ATPase): < 0.1 µM | IC50 (hERG potassium channel): 18.7 µM | Inhibition ratio of max. test concentration (hERG current) (hERG potassium channel): 86.21 ± 1.67% | Death after single oral dose ([1]; 600 mg/kg): no death | Impact on the rat's weight ([1]; 600 mg/kg): not obvious | Death after single oral dose ([1]; 2000 mg/kg): no death

CNCc1cc(-c2ccccc2F)n(S(=O)(=O)c2cccnc2)c1 [TAK-438, 5-(2-fluorophenyl)-N-methyl-1-(3-pyridylsulfonyl)-1H-pyrrole-3-methamine fumarate]
IC50 (H^+/K^+-ATPase): < 0.1 µM | IC50 (hERG potassium channel): 15.9 µM | Inhibition ratio of max. test concentration (hERG current) (hERG potassium channel): 88.23 ± 3.18% | Impact on the rat's weight ([1]; 600 mg/kg): inhibition of weight gain | Death after single oral dose ([1]; 2000 mg/kg): all died
